Results: BindingDB's records for doi:10.7270/Q2TX3CTT (Broad Institute, 2010)

Biological target: Glycogen synthase kinase-3 beta (Homo sapiens, UniProt P49841)
Experiment: GSK3beta kinase inhibitor potency, dose response, biochemical, luminescence, cell-free homogeneous, retest (AID 434954)

Chain of Glycogen synthase kinase-3 beta (P49841 whole entry): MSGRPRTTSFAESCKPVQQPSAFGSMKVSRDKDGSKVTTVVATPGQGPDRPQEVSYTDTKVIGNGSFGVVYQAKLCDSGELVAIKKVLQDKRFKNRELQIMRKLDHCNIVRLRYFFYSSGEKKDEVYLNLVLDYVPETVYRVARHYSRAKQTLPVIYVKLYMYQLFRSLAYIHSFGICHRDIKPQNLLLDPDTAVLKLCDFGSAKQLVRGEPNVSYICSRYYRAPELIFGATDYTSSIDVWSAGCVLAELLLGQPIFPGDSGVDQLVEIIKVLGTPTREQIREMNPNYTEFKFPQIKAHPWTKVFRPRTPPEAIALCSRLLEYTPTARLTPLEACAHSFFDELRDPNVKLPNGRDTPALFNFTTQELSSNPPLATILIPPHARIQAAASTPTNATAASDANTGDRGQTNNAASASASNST

Compound: Fc1ccc(CSc2ccc3nnc(-c4cccs4)n3n2)cc1 [SMR000236997]
- EC50: > 300 µM

Compound: Cc1cccc(CSc2ccc3nnc(-c4cccs4)n3n2)c1 [SMR000236998]
- EC50: > 300 µM

Compound: O=C(NCC(c1cccs1)N1CCOCC1)c1ccccc1NS(=O)(=O)c1ccc(Cl)cc1 (stereo not drawn) [SMR000242318]
- EC50: > 300 µM

Compound: NS(=O)(=O)c1cccc(NC(=O)COC(=O)/C(=C/c2cccs2)c2cccs2)c1 [SMR000242820]
- EC50: > 300 µM

Compound: CN(C)S(=O)(=O)c1cc(NC(=O)COC(=O)Cc2ccc(Br)cc2)ccc1Cl [SMR000243172]
- EC50: > 300 µM

Compound: O=C(O)COc1ccc2oc3ccccc3c2c1 [SMR000243853]
- EC50: > 300 µM

Compound: Cc1ccc(S(=O)(=O)N(C)C)cc1NC(=O)c1ccc(OC(F)(F)F)cc1 [SMR000247294]
- EC50: > 300 µM

Compound: O=C(NCCN1C(=O)S/C(=C\c2ccc(Cl)c(Cl)c2)C1=O)C1COc2ccccc2O1 (stereo not drawn) [SMR000254587]
- EC50: > 300 µM

Compound: CC(C)(C)NC(=O)NC(=O)COc1ccc(Br)cc1Br [SMR000254856]
- EC50: > 300 µM

Compound: CC(=NNC(=S)Nc1c(C)cccc1C)c1cc2ccccc2o1 [SMR000260555]
- EC50: > 300 µM

Compound: CCNC(=S)Nc1ccc2cn[nH]c2c1 [SMR000261305]
- EC50: > 300 µM

Compound: CCOc1ccc(NC(=O)COC(=O)c2ccc3c(c2)C(=O)N(CCc2ccccc2)C3=O)cc1 [SMR000261375]
- EC50: > 300 µM

Compound: O=C(Nc1cccnc1)c1sc(Nc2ccccc2)nc1-c1ccccc1 [SMR000261858]
- EC50: > 300 µM

Compound: COc1ccc(-c2nn(-c3ccccc3)cc2C=NN=C(N)N)cc1OC [SMR000261891]
- EC50: > 300 µM

Compound: Cc1ccc(-c2cc(C(=O)NCCc3ccccn3)c3ccccc3n2)c(C)c1 [SMR000264677]
- EC50: > 300 µM

Compound: COc1cc2c(cc1OC)C(C)N(C(=O)c1ccc(Br)o1)CC2 (stereo not drawn) [SMR000269781]
- EC50: > 300 µM

Compound: Cc1ccc(-c2n[nH]c(=S)n2N=Cc2ccncc2)cc1 [SMR000269897]
- EC50: 11.5 µM

Compound: CC(C)c1ccc(C(=O)NCCCN2CCN(CCCNC(=O)c3ccc(C(C)C)cc3)CC2)cc1 [SMR000272164]
- EC50: > 300 µM

Compound: CN(C)/N=N/c1ccc(S(N)(=O)=O)cc1 [SMR000272943]
- EC50: > 300 µM

Compound: CCOC(=O)c1cnc2ccc(C(=O)OC)cc2c1Nc1ccc(C(=O)O)cc1 [SMR000273135]
- EC50: > 300 µM

Compound: Cn1c(=S)n(CCC(=O)O)c2ccccc21 [SMR000273673]
- EC50: > 300 µM

Compound: O=[N+]([O-])c1ccccc1S(=O)(=O)N1CCc2ccccc2C1 [SMR000273931]
- EC50: > 300 µM

Compound: COc1cccc(CN=Nc2cc(Cl)nc(C)n2)c1O [SMR000274053]
- EC50: > 300 µM

Compound: O=C(O)c1cc(-c2ccc(C=NN3C(=O)C4C5C=CC(CC5)C4C3=O)o2)ccc1Cl (stereo not drawn) [SMR000274176]
- EC50: > 300 µM

Compound: Oc1ccc(-c2nncn2-c2ccccc2)cc1 [SMR000274861]
- EC50: 7.15 µM

Compound: CN(C)Cc1c(O)ccc2c(-c3ccccc3)cc(=O)oc12 [SMR000277276]
- EC50: > 300 µM

Compound: O=C(NN=Cc1ccco1)c1ccn[nH]1 [SMR000279368]
- EC50: > 300 µM

Compound: CC1=C(C(=O)OCC2CCCO2)C(c2ccsc2)C2C(=O)CC(C)(C)CC2=N1 (stereo not drawn) [SMR000279706]
- EC50: > 300 µM

Compound: Cc1ccc(CSc2nnc(-c3ccncc3)o2)c(C)c1 [SMR000280552]
- EC50: 14.5 µM

Compound: COc1cccc(C(=O)Nc2nc3ccc(S(C)(=O)=O)cc3s2)c1 [SMR000280607]
- EC50: > 300 µM

Compound: O=[N+]([O-])c1ccc2ccn(C3OCC(O)C(O)C3O)c2c1 (stereo not drawn) [SMR000283162]
- EC50: > 300 µM

Compound: CN1CCN(c2ccc([N+](=O)[O-])cc2Cl)CC1 [SMR000283168]
- EC50: > 300 µM

Compound: O=C1C2C3C=CC(C3)C2C(=O)N1CCCCCCN1C(=O)C2C3C=CC(C3)C2C1=O (stereo not drawn) [SMR000283963]
- EC50: > 300 µM

Compound: CCOC(=O)Cc1csc(NC(=O)c2c(O)c3ccccc3n(CCC(C)C)c2=O)n1 [SMR000284490]
- EC50: > 300 µM

Compound: O=[N+]([O-])c1cc(Cl)ccc1N1CCCC1 [SMR000284754]
- EC50: > 300 µM

Compound: CCc1ccccc1-n1c(O)cc(N2CCc3ccccc32)c1O [SMR000285101]
- EC50: > 300 µM

Compound: COc1ccc(CC(=O)Nc2ncc([N+](=O)[O-])s2)cc1OC [SMR000288398]
- EC50: 8.4 µM

Compound: O=[N+]([O-])c1c(-c2cn[nH]c2)n[nH]c1-c1cn[nH]c1 [SMR000289595]
- EC50: 13.6 µM

Compound: CC1=NN(C(=O)CCc2ccc3c(c2)OCO3)C(O)(C(F)(F)F)C1 (stereo not drawn) [SMR000289779]
- EC50: > 300 µM

Compound: CC1(C)CC(=O)C2C(=Nc3ncnn3C2c2cccs2)C1 (stereo not drawn) [SMR000291528]
- EC50: 57.1 µM

Compound: CC(C)N(C(=O)Cc1ccccc1[N+](=O)[O-])C(C)C [SMR000291889]
- EC50: > 300 µM

Compound: O=C(Cc1ccc([N+](=O)[O-])cc1)Nc1ccc2c(c1)C(=O)NC2=O [SMR000291894]
- EC50: > 300 µM

Compound: O=C(COc1ccccc1)Nc1ccc2c(c1)C(=O)N(CC1CCCO1)C2=O (stereo not drawn) [SMR000291909]
- EC50: > 300 µM

Compound: CC(=O)NC(=S)Nc1ccccc1N1CCCCC1 [SMR000292167]
- EC50: > 300 µM

Compound: Brc1ccc(CSc2nnc(-c3cccnc3)o2)cc1 [SMR000292494]
- EC50: > 300 µM

Compound: COc1cccc(C(=O)Nc2ccc(C(=O)NCC(C)C)cc2)c1 [SMR000292523]
- EC50: > 300 µM

Compound: CC(NCCC(Cc1ccccc1)c1ccco1)c1ccccc1 (stereo not drawn) [SMR000294034]
- EC50: > 300 µM

Compound: CSc1nc2n(n1)C(c1cccs1)C1C(=O)CCCC1=N2 (stereo not drawn) [SMR000295648]
- EC50: > 300 µM

Compound: CC(C(=O)NCC1CCCO1)n1cc([N+](=O)[O-])cn1 (stereo not drawn) [SMR000296777]
- EC50: > 300 µM

Compound: N#Cc1ccccc1CSc1nnc(Cc2ccccc2)o1 [SMR000297282]
- EC50: > 300 µM

Compound: CCOc1ccc(NC(=O)Nc2cnccn2)cc1 [SMR000297712]
- EC50: > 300 µM

Compound: O=C1N=C(Nc2ccc(O)cc2)SC1=Cc1ccco1 [SMR000298037]
- EC50: > 300 µM

Compound: CCOC(=O)c1cnc2ccccc2c1Nc1ccc(C(=O)O)cc1 [SMR000299060]
- EC50: > 300 µM

Compound: Cc1c(Cc2ccccc2)c(=O)oc2cc(O)cc(O)c12 [SMR000300454]
- EC50: 15.8 µM

Compound: CC(=O)Oc1cccc(N2C(=O)c3ccc(C(=O)Nc4cccnc4)cc3C2=O)c1 [SMR000306801]
- EC50: > 300 µM

Compound: Cc1cc(Cl)nc(Cl)c1C(=O)N1CCOCC1 [SMR000307050]
- EC50: > 300 µM

Compound: FC(F)(F)COc1ccc(-n2ccnc2)nn1 [SMR000307161]
- EC50: > 300 µM

Compound: Cc1ccnc(NC(=O)Cn2cc([N+](=O)[O-])cn2)c1 [SMR000307337]
- EC50: > 300 µM

Compound: CC(C(=O)Nc1nc2ccccc2s1)n1cc([N+](=O)[O-])cn1 (stereo not drawn) [SMR000307349]
- EC50: > 300 µM

Compound: Cc1cc(CNC(=O)C(C)n2cc([N+](=O)[O-])cn2)c2ccccc2n1 (stereo not drawn) [SMR000307388]
- EC50: > 300 µM

Compound: C=c1cc2[nH]c(=O)c(=Cc3ccc(OCC)c(OC)c3)c(=N)n2o1 [SMR000309341]
- EC50: > 300 µM

Compound: Cc1ccc(OCC(=O)N/N=C/c2ccc(O)c([N+](=O)[O-])c2)c([N+](=O)[O-])c1 [SMR000312577]
- EC50: > 300 µM

Compound: COc1cc(CN=Nc2nc(Nc3ccccc3)nc(N3CCCCC3)n2)ccc1OCC(=O)O [SMR000312683]
- EC50: > 300 µM

Compound: CN(Cc1nc2c(s1)CCCC2)C(=O)CCc1nnc(-c2ccc3c(c2)OCO3)o1 [SMR000318717]
- EC50: 50 µM

Compound: Oc1ccc(CN=Nc2ncnc3nc[nH]c23)cc1 [SMR000320358]
- EC50: > 300 µM

Compound: Nc1ncnc(N2CCc3ccccc32)c1[N+](=O)[O-] [SMR000323059]
- EC50: 14 µM

Compound: Cc1ccccc1CSc1ccc2nnc(-c3ccccn3)n2n1 [SMR000323599]
- EC50: > 300 µM

Compound: Cc1nnc(SCC(=O)Nc2nccs2)n(N)c1=O [SMR000323668]
- EC50: > 300 µM
